Consider five molecules from ChEMBL document CHEMBL1782056, “A novel series of piperazinyl-pyridine ureas as antagonists of the purinergic P2Y12 receptor” (Bioorg Med Chem Lett, 2011).

Each structure is given as a SMILES string. ≈ marks a conversion by molar mass, not a printed value.

This data set in a line: physchem. The conditions noted are these: HBSS buffer, pH 6.5.

As usually defined, the solubility is how much of the substance goes into solution per volume. The low end stands for little dissolved substance, the high end for much dissolved substance. Molecule `CCOC(=O)c1cc(C#N)c(N2CCN(C(=O)Nc3ccccc3)CC2)nc1C(F)(F)F` registered a solubility of under 0.1 µM.
In the case of `CCOC(=O)c1cnc(N2CCN(C(=O)Nc3ccccc3)CC2)c(C#N)c1`, the solubility was 90 µM (≈ 34.1 µg/mL).
Molecule `CCOC(=O)c1cnc(N2CCN(C(=O)Nc3ccccc3)CC2)c(Cl)c1` had a solubility of 40 µM (≈ 15.6 µg/mL).
With `CCOC(=O)C1=C(C)NC(C)=C(C(=O)OC)C1c1cccc(Cl)c1Cl` (stereo not given) [FELODIPINE], the solubility came to 1 µM (≈ 0.384 µg/mL).
`C[C@]12CC[C@H]3[C@@H](CCC4=CC(=O)CC[C@@]43C)[C@@H]1CC[C@@H]2O` [TESTOSTERONE] displayed a solubility of 75 µM (≈ 21.6 µg/mL).
